Results from patent publication US20190365785A1, “INHIBITION OF UNFOLDED PROTEIN RESPONSE FOR SUPPRESSING OR PREVENTING ALLERGIC REACTION TO FOOD” (Children's Hospital Medical Center, priority 2017, published 2019).

Assays:
CACO-2 cells [1] = assay: Pro-Th2 cytokine expression by CACO-2 cells cultured with EYP, HC, MCT or sodium palmitate, with or without UPR inhibitors; assay type: cell-based, human
Protocol: To evaluate whether the UPR induces pro-Th2 gene expression in cultured human intestinal epithelial cells, we evaluated the abilities of three UPR inhibitors to inhibit the ability of egg yolk plasma (EYP), heavy cream (HC), medium chain triglycerides (MCT), or sodium palmitate to induce pro-Th2 cytokine expression by CACO-2 cells. CACO-2 cells were cultured for 24 hours with medium alone, EW, negative control, EYP, HC, MCT, or sodium palmitate (positive control for UPR induction), with or without the UPR inhibitors metformin, TUDCA, or 4-PBA. mRNA was prepared, reverse-transcribed, and quantitated by real time PCR. […] CACO-2 cells were obtained from the American Type Culture Collection (ATCC), catalog number HTB-37. These cells were grown in ATCC-formulated Eagle's Minimum Essential Medium (EMEM) (Cat. No. 30-2003), supplemented with fetal bovine serum (FBS) to a final concentration of 20% (ATCC® Cat. No. 30-2020) and Gibco antibiotic-antimycotic mixture. The cells were cultured in 6-well, 12-well, or 24-well culture plates to approximately 85%-90% confluency. On the day of experiment, EMEM medium was prepared with the appropriate concentrations of stimulants and/or inhibitors and added to the cells. Following the period of culture (usually 6 or 24 hours), the cells were washed and lysed, and total RNA was purified using PureLink™ RNA Mini Kit (Thermo Fisher Cat. No. 12183018A). The purified total RNA was used to generate cDNA using a High-Capacity cDNA Reverse Transcription Kit (Applied Biosystems, Cat. No. 4368814). Gene expression was analyzed using the qPCR method with a BioRad My iQ™ Detection system, and compared to the expression of the GAPDH housekeeping gene.

BALB/c mice = assay: UPR inhibitors in drinking water or oral in mouse model of food (egg) allergy; assay type: in vivo; conditions: for intestinal UPR-related gene expression (except for BiP and ATF6) / intestinal pro-Th2 cytokine expression: 500 mg/kg/day in drinking water, FIG. 15A-15E; for hypothermia / mouse mast cell protease 1 (MMCP1) response / small intestinal UPR-related gene expression (except ATF6) / small intestinal pro-Th2 cytokine gene expression: mice induced to develop food allergy, 500 mg/kg in drinking water, FIG. 14
Protocol: BALB/c mice were induced to develop food allergy and were then treated with 500 mg/kg doses of metformin or TUDCA in drinking water.
BALB/c mice with established egg allergy were provided with drinking water that contained 500 mg/kg/day of metformin or TUDCA, or with ordinary drinking water. Both metformin and TUDCA suppressed intestinal UPR-related gene expression (except for BiP and ATF6) and pro-Th2 cytokine expression. Note the large increases in intestinal UPR-associated and pro-Th2 gene expression compared to naïve mice, and the partial suppression of UPR-associated and pro-Th2 genes by metformin and TUDCA (FIG. 15E).
BALB/c mice with established egg allergy were administered egg yolk plasma with or without 1 g/kg/day or 2 g/kg/day of metformin. Pro-Th2 cytokine and UPR-related gene expression was inhibited in skin (FIG. 16A) and lung (FIG. 16B).

[2] = test system: human intestinal organoids (HIO); assay: UPR-associated and pro-Th2 cytokine gene expression in human intestinal organoids injected with palmitate ± metformin or TUDCA; assay type: cell-based; conditions: lumen injection, FIG. 6A-6B
Protocol: HIO were produced from human peripheral blood pluripotent stem cells having a single UPR-associated gene deleted by CRISPR/Cas9. Applicant injected the lumens of HIO with culture medium or palmitate to induce increased UPR-associated and pro-Th2 cytokine gene expression, and further injected the HIO lumens with metformin or TUDCA. mRNA levels for the UPR-associated and pro-Th2 cytokine genes were determined by real-time PCR.

CACO-2 cells [3] = assay: UPR-related and pro-Th2 cytokine gene expression in CACO-2 cells cultured with lipid-free peanut extract ± metformin; assay type: cell-based, human; conditions: CACO-2 cells with peanut extract, treated with metformin
Protocol: Because the UPR can be induced by multiple mechanisms that are associated with cell stress, including mechanisms that are not associated with lipids, Applicant investigated the ability of aqueous extracts of allergenic foods other than eggs and milk to induce UPR-associated and pro-Th2 cytokine gene expression, and the ability of metformin to suppress these responses. CACO-2 cells were cultured for 24 hours with medium alone or with a lipid-free peanut extract±metformin. mRNA was reverse-transcribed and gene expression was determined by real time PCR.
CACO-2 cells were obtained from the American Type Culture Collection (ATCC), catalog number HTB-37. These cells were grown in ATCC-formulated Eagle's Minimum Essential Medium (EMEM) (Cat. No. 30-2003), supplemented with fetal bovine serum (FBS) to a final concentration of 20% (ATCC® Cat. No. 30-2020) and Gibco antibiotic-antimycotic mixture. The cells were cultured in 6-well, 12-well, or 24-well culture plates to approximately 85%-90% confluency.
On the day of experiment, EMEM medium was prepared with the appropriate concentrations of stimulants and/or inhibitors and added to the cells. […] Gene expression was analyzed using the qPCR method with a BioRad My iQ™ Detection system, and compared to the expression of the GAPDH housekeeping gene.

CACO-2 cells [4] = assay: Pro-Th2 cytokine protein production by CACO-2 cells (immunoprecipitation and Western blot); assay type: cell-based, human; conditions: 24 hr, Western blot, FIG. 4
Protocol: CACO-2 cells were cultured for 24 hr±palmitate or EYP. Cell lysates were prepared and normalized by protein concentration and direct α/β-tubulin Western blot. Lysates were serially incubated with anti-IL-25+protein G beads, anti-IL-33+protein G beads, and anti-TSLP+protein G beads. Laemmli buffer eluates from beads were analyzed by electrophoresis on a 4-20% polyacrylamide gel, blotted onto a PVDF membrane, and visualized by incubation with biotinylated anti-IL-25, anti-IL-33, or anti-TSLP mAb, followed by streptavidin-peroxidase and ECL WB substrate.

CACO-2 cells [5] = assay: CACO-2 cells cultured with egg yolk plasma or peanut extract, with or without lipase inhibitor Orlistat; assay type: cell-based, human; conditions: 24 hours, FIG. 3
Protocol: CACO-2 cells were cultured for 24 hours with medium alone, egg yolk plasma, or peanut extract, with or without the lipase inhibitor Orlistat. mRNA was extracted and reverse transcribed, after which UPR-associated gene expression and pro-Th2 cytokine gene expression were determined by real time PCR. […] CACO-2 cells were obtained from the American Type Culture Collection (ATCC), catalog number HTB-37. These cells were grown in ATCC-formulated Eagle's Minimum Essential Medium (EMEM) (Cat. No. 30-2003), supplemented with fetal bovine serum (FBS) to a final concentration of 20% (ATCC® Cat. No. 30-2020) and Gibco antibiotic-antimycotic mixture. The cells were cultured in 6-well, 12-well, or 24-well culture plates to approximately 85%-90% confluency. On the day of experiment, EMEM medium was prepared with the appropriate concentrations of stimulants and/or inhibitors and added to the cells. Following the period of culture (usually 6 or 24 hours), the cells were washed and lysed, and total RNA was purified using PureLink™ RNA Mini Kit (Thermo Fisher Cat. No. 12183018A). The purified total RNA was used to generate cDNA using a High-Capacity cDNA Reverse Transcription Kit (Applied Biosystems, Cat. No. 4368814). Gene expression was analyzed using the qPCR method with a BioRad My iQ™ Detection system, and compared to the expression of the GAPDH housekeeping gene.

[6] = 24 hours, real time PCR, FIG. 1
[7] = summary statement of Applicant's results

SMILES	suppression of EYP-, HC-, MCT- and palmitate-induced expression of the pro-Th2 cytokines (CACO-2 cells [1]; [6])	established food allergy (BALB/c mice; [7])	palmitate-induced UPR-associated and pro-Th2 cytokine gene expression [2]	intestinal UPR-related gene expression (except for BiP and ATF6) (BALB/c mice; established egg allergy)	intestinal pro-Th2 cytokine expression (BALB/c mice; established egg allergy)	hypothermia (BALB/c mice)	mouse mast cell protease 1 (MMCP1) response (BALB/c mice)	small intestinal UPR-related gene expression (except ATF6) (BALB/c mice)	small intestinal pro-Th2 cytokine gene expression (BALB/c mice)	other results
O=C(O)CCCc1ccccc1 [4-PBA, 4-phenylbutyrate]	strong suppression	suppresses								
C[C@H](CCC(=O)NCCS(=O)(=O)O)[C@H]1CC[C@H]2[C@@H]3[C@@H](O)C[C@@H]4C[C@H](O)CC[C@]4(C)[C@H]3CC[C@]12C [TUDCA, tauroursodeoxycholic acid]	strong suppression	suppresses	suppressed	suppressed	suppressed	suppression	suppression	suppression	suppression	
CN(C)C(=N)N=C(N)N [metformin]	strong suppression	suppresses	suppressed	suppressed	suppressed	suppression	suppression	suppression	suppression	pro-Th2 cytokine gene induction by egg and milk lipid fractions and aqueous extracts of peanuts, walnut, codfish (CACO-2 cells [1]; summary, every allergen tested): suppresses pro-Th2 cytokine gene induction in every case; Pro-Th2 cytokine and UPR-related gene expression in skin (BALB/c mice; established egg allergy, egg yolk plasma, 1 g/kg/day or 2 g/kg/day oral, FIG. 16A): inhibited; Pro-Th2 cytokine and UPR-related gene expression in lung (BALB/c mice; established egg allergy, egg yolk plasma, 1 g/kg/day or 2 g/kg/day oral, FIG. 16B): inhibited; development of food allergy (BALB/c mice; [7]): suppresses; expression of UPR-related genes (CACO-2 cells [3]; FIG. 2 A): reduced expression; expression of pro-Th2 cytokine genes (CACO-2 cells [3]; FIG. 2 B): reduced expression
CCCCCCCCCCCCCCCC(=O)[O-].[Na+] [sodium palmitate]										UPR-dependent induction of pro-Th2 cytokine genes [2]: stimulated; induction of expression of the pro-Th2 cytokines (CACO-2 cells [1]; 24 hours, stimulant alone, real time PCR, FIG. 1): induced increased expression; pro-Th2 cytokine protein expression (IL-25, IL-33, TSLP) (CACO-2 cells [4]): increase
CCCCCCCCCCC[C@@H](C[C@@H]1OC(=O)[C@H]1CCCCCC)OC(=O)[C@H](CC(C)C)NC=O [Orlistat]										UPR-related or pro-Th2 gene expression by peanut extract (CACO-2 cells [5]): no effect; egg yolk plasma-induced UPR-associated and pro-Th2 cytokine gene expression (CACO-2 cells [5]): suppressed
